Reference: ChEMBL document CHEMBL3885881, “DrugMatrix”

Organism: Rattus norvegicus
Assay: DrugMatrix - Regimen: Daily Repeat
Type: toxicity, organism-based, Sprague-Dawley
Parameters: regimen Daily Repeat, gender Male, age 6-8 weeks
Conditions: in vivo, po, route oral GAVAGE, vehicle .5 % CMC; for BASOPHIL / EOSINOPHIL / ERYTHROCYTE COUNT / HEMATOCRIT / HEMOGLOBIN / LEUKOCYTE COUNT / LYMPHOCYTE / MEAN CORPUSCULAR HEMOGLOBIN / MEAN CORPUSCULAR HEMOGLOBIN CONCENTRATION / MEAN CORPUSCULAR VOLUME / MONOCYTE / NEUTROPHIL / PLATELET COUNT: tissue Blood; for ALANINE AMINOTRANSFERASE / ALBUMIN / ALKALINE PHOSPHATASE / ASPARTATE AMINOTRANSFERASE / BLOOD UREA NITROGEN / CHLORIDE / CHOLESTEROL / CREATINE PHOSPHOKINASE / CREATININE / GLUCOSE / PHOSPHORUS / POTASSIUM / SODIUM / TOTAL PROTEIN: tissue Plasma
[1] = 0 mg/kg, 72 h, dose level Control, time 3 day
[2] = 0 mg/kg, 120 h, dose level Control, time 5 day
[3] = 3 mg/kg, 72 h, dose level Low, time 3 day
[4] = 3 mg/kg, 120 h, dose level Low, time 5 day
[5] = 37 mg/kg, 72 h, dose level High, time 3 day
[6] = 37 mg/kg, 120 h, dose level High, time 5 day

## CN1CCC(=C2c3ccccc3C=Cc3ccccc32)CC1 [CYPROHEPTADINE]
[1]
  BASOPHIL: 0%
  EOSINOPHIL: 0.33%
  ERYTHROCYTE COUNT: 6.03 x10E6/uL
  HEMATOCRIT: 38.8%
  HEMOGLOBIN: 14.26 G/DL
  LEUKOCYTE COUNT: 10.64 x10E3/uL
  LYMPHOCYTE: 83.33%
  MEAN CORPUSCULAR HEMOGLOBIN: 23.64 pg
  MEAN CORPUSCULAR HEMOGLOBIN CONCENTRATION: 36.74 G/DL
  MEAN CORPUSCULAR VOLUME: 64.32 fL
  MONOCYTE: 3.33%
  NEUTROPHIL: 13%
  PLATELET COUNT: 1264.4 x10E3/uL
  ALANINE AMINOTRANSFERASE: 38.83 u/L
  ALBUMIN: 3.55 G/DL
  ALKALINE PHOSPHATASE: 368.33 u/L
  ASPARTATE AMINOTRANSFERASE: 66.17 u/L
  BLOOD UREA NITROGEN: 15.67 mg/dL
  CHLORIDE: 104.33 MEQ/L
  CHOLESTEROL: 76.5 mg/dL
  CREATINE PHOSPHOKINASE: 166.83 u/L
  CREATININE: 0.52 mg/dL
  GLUCOSE: 173.17 mg/dL
  PHOSPHORUS: 11.68 mg/dL
  POTASSIUM: 6.43 MEQ/L
  SODIUM: 149.5 MEQ/L
  TOTAL PROTEIN: 5.93 G/DL
[2]
  BASOPHIL: 0%
  EOSINOPHIL: 0%
  ERYTHROCYTE COUNT: 5.88 x10E6/uL
  HEMATOCRIT: 37.87%
  HEMOGLOBIN: 14.48 G/DL
  LEUKOCYTE COUNT: 12.43 x10E3/uL
  LYMPHOCYTE: 84.17%
  MEAN CORPUSCULAR HEMOGLOBIN: 24.65 pg
  MEAN CORPUSCULAR HEMOGLOBIN CONCENTRATION: 38.25 G/DL
  MEAN CORPUSCULAR VOLUME: 64.47 fL
  MONOCYTE: 4.33%
  NEUTROPHIL: 11.5%
  PLATELET COUNT: 1182.33 x10E3/uL
  ALANINE AMINOTRANSFERASE: 38.67 u/L
  ALBUMIN: 3.55 G/DL
  ALKALINE PHOSPHATASE: 342.5 u/L
  ASPARTATE AMINOTRANSFERASE: 63.33 u/L
  BLOOD UREA NITROGEN: 15.5 mg/dL
  CHLORIDE: 104 MEQ/L
  CHOLESTEROL: 75.5 mg/dL
  CREATINE PHOSPHOKINASE: 142.5 u/L
  CREATININE: 0.62 mg/dL
  GLUCOSE: 165.17 mg/dL
  PHOSPHORUS: 10.87 mg/dL
  POTASSIUM: 6.85 MEQ/L
  SODIUM: 150.17 MEQ/L
  TOTAL PROTEIN: 5.93 G/DL
[3]
  BASOPHIL: 0%
  EOSINOPHIL: 0%
  ERYTHROCYTE COUNT: 6.1 x10E6/uL
  HEMATOCRIT: 40.23%
  HEMOGLOBIN: 15.13 G/DL
  LEUKOCYTE COUNT: 11.03 x10E3/uL
  LYMPHOCYTE: 89.33%
  MEAN CORPUSCULAR HEMOGLOBIN: 24.8 pg
  MEAN CORPUSCULAR HEMOGLOBIN CONCENTRATION: 37.63 G/DL
  MEAN CORPUSCULAR VOLUME: 65.97 fL
  MONOCYTE: 1%
  NEUTROPHIL: 9.67%
  PLATELET COUNT: 1191.33 x10E3/uL
  ALANINE AMINOTRANSFERASE: 32.67 u/L
  ALBUMIN: 3.6 G/DL
  ALKALINE PHOSPHATASE: 369 u/L
  ASPARTATE AMINOTRANSFERASE: 58 u/L
  BLOOD UREA NITROGEN: 13.33 mg/dL
  CHLORIDE: 105.67 MEQ/L
  CHOLESTEROL: 75.67 mg/dL
  CREATINE PHOSPHOKINASE: 139.67 u/L
  CREATININE: 0.47 mg/dL
  GLUCOSE: 159 mg/dL
  PHOSPHORUS: 11.23 mg/dL
  POTASSIUM: 6.9 MEQ/L
  SODIUM: 151.33 MEQ/L
  TOTAL PROTEIN: 5.8 G/DL
[4]
  BASOPHIL: 0%
  EOSINOPHIL: 0.67%
  ERYTHROCYTE COUNT: 6.35 x10E6/uL
  HEMATOCRIT: 39.23%
  HEMOGLOBIN: 14.37 G/DL
  LEUKOCYTE COUNT: 13.2 x10E3/uL
  LYMPHOCYTE: 89.33%
  MEAN CORPUSCULAR HEMOGLOBIN: 22.67 pg
  MEAN CORPUSCULAR HEMOGLOBIN CONCENTRATION: 36.63 G/DL
  MEAN CORPUSCULAR VOLUME: 61.83 fL
  MONOCYTE: 1%
  NEUTROPHIL: 9%
  PLATELET COUNT: 1248.67 x10E3/uL
  ALANINE AMINOTRANSFERASE: 39.67 u/L
  ALBUMIN: 3.4 G/DL
  ALKALINE PHOSPHATASE: 503.67 u/L
  ASPARTATE AMINOTRANSFERASE: 62.67 u/L
  BLOOD UREA NITROGEN: 13.67 mg/dL
  CHLORIDE: 103.33 MEQ/L
  CHOLESTEROL: 70 mg/dL
  CREATINE PHOSPHOKINASE: 134 u/L
  CREATININE: 0.53 mg/dL
  GLUCOSE: 189.33 mg/dL
  PHOSPHORUS: 12.93 mg/dL
  POTASSIUM: 6.83 MEQ/L
  SODIUM: 147.67 MEQ/L
  TOTAL PROTEIN: 5.63 G/DL
[5]
  BASOPHIL: 0%
  EOSINOPHIL: 0%
  ERYTHROCYTE COUNT: 5.89 x10E6/uL
  HEMATOCRIT: 38%
  HEMOGLOBIN: 13.37 G/DL
  LEUKOCYTE COUNT: 9.03 x10E3/uL
  LYMPHOCYTE: 86%
  MEAN CORPUSCULAR HEMOGLOBIN: 22.7 pg
  MEAN CORPUSCULAR HEMOGLOBIN CONCENTRATION: 35.17 G/DL
  MEAN CORPUSCULAR VOLUME: 64.53 fL
  MONOCYTE: 3.33%
  NEUTROPHIL: 10.67%
  PLATELET COUNT: 1233.33 x10E3/uL
  ALANINE AMINOTRANSFERASE: 33 u/L
  ALBUMIN: 3.67 G/DL
  ALKALINE PHOSPHATASE: 296.33 u/L
  ASPARTATE AMINOTRANSFERASE: 50.33 u/L
  BLOOD UREA NITROGEN: 15 mg/dL
  CHLORIDE: 104.67 MEQ/L
  CHOLESTEROL: 62.67 mg/dL
  CREATINE PHOSPHOKINASE: 128 u/L
  CREATININE: 0.5 mg/dL
  GLUCOSE: 167.33 mg/dL
  PHOSPHORUS: 12.37 mg/dL
  POTASSIUM: 7.2 MEQ/L
  SODIUM: 150.67 MEQ/L
  TOTAL PROTEIN: 5.93 G/DL
[6]
  BASOPHIL: 0%
  EOSINOPHIL: 0.33%
  ERYTHROCYTE COUNT: 5.95 x10E6/uL
  HEMATOCRIT: 37.4%
  HEMOGLOBIN: 13.8 G/DL
  LEUKOCYTE COUNT: 11.57 x10E3/uL
  LYMPHOCYTE: 87.33%
  MEAN CORPUSCULAR HEMOGLOBIN: 23.23 pg
  MEAN CORPUSCULAR HEMOGLOBIN CONCENTRATION: 36.93 G/DL
  MEAN CORPUSCULAR VOLUME: 62.9 fL
  MONOCYTE: 0%
  NEUTROPHIL: 12.33%
  PLATELET COUNT: 1286.67 x10E3/uL
  ALANINE AMINOTRANSFERASE: 35 u/L
  ALBUMIN: 3.4 G/DL
  ALKALINE PHOSPHATASE: 311.67 u/L
  ASPARTATE AMINOTRANSFERASE: 52 u/L
  BLOOD UREA NITROGEN: 14 mg/dL
  CHLORIDE: 102.33 MEQ/L
  CHOLESTEROL: 50.67 mg/dL
  CREATINE PHOSPHOKINASE: 124 u/L
  CREATININE: 0.53 mg/dL
  GLUCOSE: 159.67 mg/dL
  PHOSPHORUS: 12.5 mg/dL
  POTASSIUM: 6.77 MEQ/L
  SODIUM: 148.67 MEQ/L
  TOTAL PROTEIN: 5.7 G/DL
